Measured values from PMC10165273, “Itch receptor MRGPRX4 interacts with the receptor activity–modifying proteins” (The Journal of Biological Chemistry, 2023).
Like-named read-outs stand apart in the source and are kept apart here.

Molecular target: T1, MRGPRX4 + RAMP2 (Homo sapiens, UniProt Q96LA9)
T1 construct: expressed in transfected cells; host or cells: HEK293T
Test: IP1 accumulation, MRGPRX4 coexpressed with RAMP2
Format: cell-based
Details: for activation at 100 µM / activation at 20 µM / activation at 4 µM / activation at 0.8 µM / activation at […] / activation at 0.032 µM: 2 h
Procedure: HEK293T cells were transfected with 1 pg/cell of MRGPRX4 DNA, and the amount of DNA was kept constant at 2 pg/cell with pcDNA3.1(+) empty vector, unless otherwise specified. Twenty four hours after transfection, IP1 assay was performed as previously described ([51]). When applicable, cells were treated with 1 μM YM254890 (YM) or different concentrations of U73122 for 1 h prior to addition of agonist or buffer. After incubation for 2 h, HTRF reagents and IP1 calibration standards were added and incubated for 2 h in the dark at room temperature. Time-resolved fluorescence signals were read on the BioTek Synergy NEO-TRF Hybrid multi-mode reader (BioTek Instruments). All data were carried out in three independent experiments with three technical replicate each.
For RAMP DNA titration assay, HEK293T cells were cotransfected with a constant amount of 1 pg/cell of FLAG-MRGPRX4-GFP10-1D4 to which a serial dilution of 1, 0.75, 0.5, 0.25, or 0 pg/cell of each HA-RAMP-OLLAS was added. For a homogenous transfection of MRGPRX4, a master mix of MRGPRX4 DNA was made prior to addition of the RAMP DNA. […]
Data reduction, standard calibration, and transformation of HTRF data were performed as previously described ([51]). Normalized IP1 values were calculated relative to the unstimulated mock-transfected cells (set to 0%) and fully stimulated MRGPRX4 (alone if applicable) (set to 100%).

T1 sequence (Q96LA9 whole entry): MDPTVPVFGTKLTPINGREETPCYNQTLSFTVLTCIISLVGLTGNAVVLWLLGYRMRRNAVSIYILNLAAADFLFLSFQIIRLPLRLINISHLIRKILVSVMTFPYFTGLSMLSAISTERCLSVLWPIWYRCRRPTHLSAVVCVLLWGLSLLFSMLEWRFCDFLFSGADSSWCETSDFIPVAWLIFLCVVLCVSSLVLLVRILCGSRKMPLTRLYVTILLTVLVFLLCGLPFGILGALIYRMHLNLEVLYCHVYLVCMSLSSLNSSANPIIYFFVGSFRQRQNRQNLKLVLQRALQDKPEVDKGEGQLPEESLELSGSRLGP

CC(C)[C@H]1CC[C@H](C(=O)N[C@H](Cc2ccccc2)C(=O)O)CC1 [Nateglinide]
activation at 100 µM (log [nateglinide] (M) -4, MRGPRX4+RAMP2 0.75pg 1:0.75, Supplementary Figure 5e, read-out: IP1 accumulation (normalized)): 67.4%
activation at 100 µM (log [nateglinide] (M) -4, MRGPRX4+RAMP2 1pg 1:1, Supplementary Figure 5e, 5g, read-out: IP1 accumulation (normalized)): 56.4%
activation at 20 µM (log [nateglinide] (M) -4.69897, MRGPRX4+RAMP2 0.5pg 1:0.5, Supplementary Figure 5e, read-out: IP1 accumulation (normalized)): 67.3%
activation at 20 µM (log [nateglinide] (M) -4.69897, MRGPRX4+RAMP2 0.75pg 1:0.75, Supplementary Figure 5e, read-out: IP1 accumulation (normalized)): 50.8%
activation at 20 µM (log [nateglinide] (M) -4.69897, MRGPRX4+RAMP2 1pg 1:1, Supplementary Figure 5e, 5g, read-out: IP1 accumulation (normalized)): 31.2%
activation at 4 µM (log [nateglinide] (M) -5.39794, MRGPRX4+RAMP2 0.5pg 1:0.5, Supplementary Figure 5e, read-out: IP1 accumulation (normalized)): 27.4%
activation at 4 µM (log [nateglinide] (M) -5.39794, MRGPRX4+RAMP2 0.75pg 1:0.75, Supplementary Figure 5e, read-out: IP1 accumulation (normalized)): 22.7%
activation at 4 µM (log [nateglinide] (M) -5.39794, MRGPRX4+RAMP2 1pg 1:1, Supplementary Figure 5e, 5g, read-out: IP1 accumulation (normalized)): 15%
activation at 0.8 µM (log [nateglinide] (M) -6.09691, MRGPRX4+RAMP2 0.5pg 1:0.5, Supplementary Figure 5e, read-out: IP1 accumulation (normalized)): 14.1%
activation at 0.8 µM (log [nateglinide] (M) -6.09691, MRGPRX4+RAMP2 0.75pg 1:0.75, Supplementary Figure 5e, read-out: IP1 accumulation (normalized)): 9.77%
activation at 0.8 µM (log [nateglinide] (M) -6.09691, MRGPRX4+RAMP2 1pg 1:1, Supplementary Figure 5e, 5g, read-out: IP1 accumulation (normalized)): 5.12%
activation at […] (log [nateglinide] (M) -6.79588, MRGPRX4+RAMP2 0.5pg 1:0.5, Supplementary Figure 5e, read-out: IP1 accumulation (normalized)): 8.46%
activation at […] (log [nateglinide] (M) -6.79588, MRGPRX4+RAMP2 0.75pg 1:0.75, Supplementary Figure 5e, read-out: IP1 accumulation (normalized)): 6.53%
activation at […] (log [nateglinide] (M) -6.79588, MRGPRX4+RAMP2 1pg 1:1, Supplementary Figure 5e, 5g, read-out: IP1 accumulation (normalized)): 3.5%
activation at 0.032 µM (log [nateglinide] (M) -7.49485, MRGPRX4+RAMP2 0.5pg 1:0.5, Supplementary Figure 5e, read-out: IP1 accumulation (normalized)): 8.31%
activation at 0.032 µM (log [nateglinide] (M) -7.49485, MRGPRX4+RAMP2 0.75pg 1:0.75, Supplementary Figure 5e, read-out: IP1 accumulation (normalized)): 6.16%
activation at 0.032 µM (log [nateglinide] (M) -7.49485, MRGPRX4+RAMP2 1pg 1:1, Supplementary Figure 5e, 5g, read-out: IP1 accumulation (normalized)): 3.54%
activation at 100 µM (ratio MRGPRX4:RAMP2 1:0.25, log [Nateglinide] (M) -4, Fig S3b, read-out: IP1 accumulation): 98.8%
activation at 20 µM (ratio MRGPRX4:RAMP2 1:0.25, log [Nateglinide] (M) -4.69897, Fig S3b, read-out: IP1 accumulation): 58.9%
activation at 4 µM (ratio MRGPRX4:RAMP2 1:0.25, log [Nateglinide] (M) -5.39794, Fig S3b, read-out: IP1 accumulation): 38%
activation at 0.8 µM (ratio MRGPRX4:RAMP2 1:0.25, log [Nateglinide] (M) -6.09691, Fig S3b, read-out: IP1 accumulation): 25.5%
activation at […] (ratio MRGPRX4:RAMP2 1:0.25, log [Nateglinide] (M) -6.79588, Fig S3b, read-out: IP1 accumulation): 22.6%
activation at 0.032 µM (ratio MRGPRX4:RAMP2 1:0.25, log [Nateglinide] (M) -7.49485, Fig S3b, read-out: IP1 accumulation): 20.5%
activation at 100 µM (ratio MRGPRX4:RAMP2 1:0.5, log [Nateglinide] (M) -4, Fig S3b, read-out: IP1 accumulation): 67.8%
activation at 20 µM (ratio MRGPRX4:RAMP2 1:0.5, log [Nateglinide] (M) -4.69897, Fig S3b, read-out: IP1 accumulation): 62.1%
activation at 4 µM (ratio MRGPRX4:RAMP2 1:0.5, log [Nateglinide] (M) -5.39794, Fig S3b, read-out: IP1 accumulation): 36.6%
activation at 0.8 µM (ratio MRGPRX4:RAMP2 1:0.5, log [Nateglinide] (M) -6.09691, Fig S3b, read-out: IP1 accumulation): 20.3%
activation at […] (ratio MRGPRX4:RAMP2 1:0.5, log [Nateglinide] (M) -6.79588, Fig S3b, read-out: IP1 accumulation): 15.7%
activation at 0.032 µM (ratio MRGPRX4:RAMP2 1:0.5, log [Nateglinide] (M) -7.49485, Fig S3b, read-out: IP1 accumulation): 15.3%
activation at 100 µM (ratio MRGPRX4:RAMP2 1:1, log [Nateglinide] (M) -4, Fig S3b, read-out: IP1 accumulation): 40.5%
activation at 20 µM (ratio MRGPRX4:RAMP2 1:1, log [Nateglinide] (M) -4.69897, Fig S3b, read-out: IP1 accumulation): 43.2%
activation at 4 µM (ratio MRGPRX4:RAMP2 1:1, log [Nateglinide] (M) -5.39794, Fig S3b, read-out: IP1 accumulation): 21.9%
activation at 0.8 µM (ratio MRGPRX4:RAMP2 1:1, log [Nateglinide] (M) -6.09691, Fig S3b, read-out: IP1 accumulation): 14.1%
activation at […] (ratio MRGPRX4:RAMP2 1:1, log [Nateglinide] (M) -6.79588, Fig S3b, read-out: IP1 accumulation): 11.3%
activation at 0.032 µM (ratio MRGPRX4:RAMP2 1:1, log [Nateglinide] (M) -7.49485, Fig S3b, read-out: IP1 accumulation): 11.1%
activation at 100 µM (ratio MRGPRX4:RAMP2 1:2, log [Nateglinide] (M) -4, Fig S3b, read-out: IP1 accumulation): 28%
activation at 20 µM (ratio MRGPRX4:RAMP2 1:2, log [Nateglinide] (M) -4.69897, Fig S3b, read-out: IP1 accumulation): 15.2%
activation at 4 µM (ratio MRGPRX4:RAMP2 1:2, log [Nateglinide] (M) -5.39794, Fig S3b, read-out: IP1 accumulation): 6.45%
activation at 0.8 µM (ratio MRGPRX4:RAMP2 1:2, log [Nateglinide] (M) -6.09691, Fig S3b, read-out: IP1 accumulation): 4.89%
activation at […] (ratio MRGPRX4:RAMP2 1:2, log [Nateglinide] (M) -6.79588, Fig S3b, read-out: IP1 accumulation): 3.86%
activation at 0.032 µM (ratio MRGPRX4:RAMP2 1:2, log [Nateglinide] (M) -7.49485, Fig S3b, read-out: IP1 accumulation): 3.91%
Emax (Figure 4a bottom, DNA ratio MRGPRX4:RAMP2 1:1, MRGPRX4 alone = 100, read-out: efficacy): 35.1%
